Results from patent US8809384B2, “Azaspirodecanone compounds” (Hoffmann-La Roche Inc., priority 2011, dated 2014).
pIC50: −log10 of the molar value.

Target: T1, human HSL (Homo sapiens, UniProt Q05469)
T1 construct: generate a full length human HSL ORF with a 3′-His6 tag; made in house; host or cells: High 5 insect cells (baculovirus, pFast-BAC)
T1 sequence (Q05469 1-1076): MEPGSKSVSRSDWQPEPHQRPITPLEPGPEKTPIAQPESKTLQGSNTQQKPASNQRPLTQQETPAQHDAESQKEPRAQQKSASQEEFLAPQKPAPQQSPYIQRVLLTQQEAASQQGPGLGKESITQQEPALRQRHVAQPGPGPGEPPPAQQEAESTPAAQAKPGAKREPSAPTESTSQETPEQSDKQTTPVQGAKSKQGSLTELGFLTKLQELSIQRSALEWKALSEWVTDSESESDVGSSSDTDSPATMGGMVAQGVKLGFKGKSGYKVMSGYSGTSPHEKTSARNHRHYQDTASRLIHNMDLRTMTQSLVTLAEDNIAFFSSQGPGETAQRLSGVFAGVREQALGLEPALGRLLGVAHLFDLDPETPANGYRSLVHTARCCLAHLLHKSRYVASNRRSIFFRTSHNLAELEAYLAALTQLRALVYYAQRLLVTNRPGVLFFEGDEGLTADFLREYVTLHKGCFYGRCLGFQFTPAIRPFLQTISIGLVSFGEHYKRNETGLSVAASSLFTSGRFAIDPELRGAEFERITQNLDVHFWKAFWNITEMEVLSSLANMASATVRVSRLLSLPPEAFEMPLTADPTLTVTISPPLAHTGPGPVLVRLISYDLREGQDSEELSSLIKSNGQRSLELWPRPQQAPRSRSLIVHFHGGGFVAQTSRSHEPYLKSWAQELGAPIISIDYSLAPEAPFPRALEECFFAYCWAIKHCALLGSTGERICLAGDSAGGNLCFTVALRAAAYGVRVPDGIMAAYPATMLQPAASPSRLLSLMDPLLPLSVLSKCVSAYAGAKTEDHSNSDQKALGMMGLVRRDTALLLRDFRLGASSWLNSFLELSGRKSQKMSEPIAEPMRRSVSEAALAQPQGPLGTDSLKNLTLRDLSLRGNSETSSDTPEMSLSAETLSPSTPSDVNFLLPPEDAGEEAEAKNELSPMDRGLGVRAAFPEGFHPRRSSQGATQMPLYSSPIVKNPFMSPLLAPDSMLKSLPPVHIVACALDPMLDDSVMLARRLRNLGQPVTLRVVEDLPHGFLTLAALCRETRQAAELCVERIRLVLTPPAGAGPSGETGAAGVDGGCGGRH
Test: Human Hormone-Sensitive Lipase (HSL) enzyme inhibition assay (colorimetric, DMPT substrate)
Format: biochemical
Conditions: human full length HSL-His6, 2,3-dimercapto-1-propanol tributyrate substrate, 37° C., 20 minutes; read-out: HSL hum IC50
Method: Production of Human full length Hormone Sensitive Lipase-His^6: • 1) Cloning: cDNA was prepared from commercial human brain polyA+ RNA and used as a template in overlapping PCR to generate a full length human HSL ORF with a 3′-His6 tag. This full length insert was cloned into the pFast-BAC vector and the DNA-sequence of several single clones was verified. DNA from a correct full length clone with the 3′His6 tag was used to transform the E. coli strain DH10BAC. Resulting bacmid DNA was used to generate a titered baculovirus stock for protein generation. The sequence of the encoded HSL conforms to Swissprot entry Q05469, with the additional C-terminal His6-tag. • 2) Protein purification: Culture: 5.5 L, High 5 cells expressing human full length HSL-His^6, 48 hr., containing 25 μM E-64. Cell count: […], 90% viable. Cells were thawed. On ice, cells were suspended in Base Buffer containing 10% glycerol, 25 mM Tris-Cl, 300 mM NaCl, 10 mM imidazole, 10 mM 2-mercaptoethanol, 2 μg pepstatin/ml, 2 μg leupeptin/ml, 2 μg antipain/ml, pH 8.0 at 4° C. in a final volume of 475 ml with 3.75×10^7 cells/ml. […] was done at 3×30 sec., Lubrol PX was added to 0.2% final concentration followed by stirring for 15 min at 4° C. and centrifugation at 25 k×g, 60 min, 4° C. Soluble proteins were mixed with 60 ml of pre-washed and equilibrated Ni-NTA Agarose (Qiagen 30210) followed by tumbling end-over-end, 45 min., 4° C., centrifugation 1000 rpm 5 min and letting resin settle […]. Supernatant was removed, the resin washed in the centrifuge vessel using 5 volumes of Base Buffer containing 0.2% Lubrol PX. Centrifugation was done again, then the supernatant discarded. The resin was poured onto a 0.8 μm membrane in a disposable filter unit (Nalge 450-0080), and washed with 5 volumes of Base Buffer containing 0.2% Lubrol PX. It was then washed with 30 volumes of Base Buffer containing 60 mM imidazole pH 7.5 at 4° C. The protein was eluated with 5 volumes of 25 mM Tris-Cl, 300 mM NaCl, 200 mM imidazole, 10 mM 2-mercaptoethanol, pH 7.5 at 4° C. by tumbling resin with buffer end-over-end, 30 min., 4° C. The resin was captured on a 0.2 μm membrane disposable filter unit (Millipore SCGP U02 RE) and the eluate collected in the reservoir. The eluate was concentrated using a 30 k MWCO centrifugal filter device (Sartorius Vivascience Vivacell 100, VC1022), to 20 ml. It was then dialyzed overnight at 4° C., two times against 2 L of 10% glycerol, 25 mM Tris-Cl, 300 mM NaCl, 0.2 mM EDTA, 0.2 mM DTT, pH 7.5 at 4° C. The protein was filtered using a 0.22 μm disposable filter unit (Millipore SCGP00525). The protein concentration was calculated from absorbance at 280 nm, using 280=0.67 cm^−1 mg-1. Yield was 235 mg, total. The protein was stored at −80° C.
Human Hormone-Sensitive Lipase (HSL) Enzyme Inhibition Assay: • HSL enzyme activity was measured by a colorimetric assay using 2,3-dimercapto-1-propanol tributyrate (Aldrich, St. Louis, Mo.) as a substrate. Typically, 1.5 mM 2,3-dimercapto-1-propanol tributyrate (DMPT) in 100 mM MOPS, pH 7.2, 0.2 mg/ml fatty acid-free BSA was prepared by sonication at 4° C. to homogenous suspension. Test compounds (2 mM stock in DMSO) were diluted 3 fold in series in DMSO. Compound solutions were diluted 24 fold in 1.5 mM DMPT containing solution and 18 μl per well was added to 384-well microplates (Corning Costar). Twelve microliters per well of human HSL (15 μg/ml) was added and the reaction mixture was incubated at 37° C. for 20 minutes. Six microliters of 12 mM dithio-bis-(2-nitrobenzoic acid) (DTNB) in DMSO plus 1.2% SDS and 0.6% Triton X-100 were added and the mixture was incubated at room temperature for 15 minutes. Product production was monitored by reading absorbance at 405 nm on an Envision Reader (PerkinElmer Life and Analytical Sciences, Shelton, Conn.).

| SMILES | pIC50 |
| --- | --- |
| CC1(C)CCC(=O)N1C[C@]1(O)CC[C@]2(CCN(c3ccc(C(F)(F)F)cc3)C2=O)CC1 [Example 1, (5α,8α)-8-((2,2-dimethyl-5-oxopyrrolidin-1-yl)methyl)-8-hydroxy-2-(4-(trifluoromethyl)phenyl)-2-azaspiro[4.5]decan-1-one] | 7.83 |
| CC(C)Oc1ccc(N2CC[C@]3(CC[C@@](O)(CN4C(=O)CCC4(C)C)CC3)C2=O)cc1 [Example 2, (5α,8α)-8-((2,2-dimethyl-5-oxopyrrolidin-1-yl)methyl)-8-hydroxy-2-(4-isopropoxyphenyl)-2-azaspiro[4.5]decan-1-one] | 7.90 |
| CC(C)Oc1ccc(N2CC[C@]3(CC[C@@](O)(CN4CCN(C)C4=O)CC3)C2=O)cc1 [Example 3, (5α,8α)-8-hydroxy-2-(4-isopropoxyphenyl)-8-((3-methyl-2-oxoimidazolidin-1-yl)methyl)-2-azaspiro[4.5]decan-1-one] | 7.62 |
| CC(C)Oc1ccc(N2CC[C@]3(CC[C@@](O)(CN4CC[C@@H](O)C4=O)CC3)C2=O)cc1 [Example 6, (5α,8α)-8-Hydroxy-8-(((R)-3-hydroxy-2-oxopyrrolidin-1-yl)methyl)-2-(4-isopropoxyphenyl)-2-azaspiro[4.5]decan-1-one] | 7.22 |
| CC(C)Oc1ccc(N2CC[C@]3(CC[C@@](O)(CN4CCN(C)C4=O)CC3)C2=O)cn1 [Example 7, (5α,8α)-8-Hydroxy-2-(6-isopropoxy-pyridin-3-yl)-8-(3-methyl-2-oxo-imidazolidin-1-ylmethyl)-2-aza-spiro[4.5]decan-1-one] | 6.86 |
| CC(C)Oc1ccc(N2CC[C@]3(CC[C@@](O)(CN4CCNC4=O)CC3)C2=O)cn1 [Example 8, (5α,8α)-8-hydroxy-2-(6-isopropoxypyridin-3-yl)-8-((2-oxoimidazolidin-1-yl)methyl)-2-azaspiro[4.5]decan-1-one] | 6.52 |
| CC1(C)CCC(=O)N1C[C@]1(O)CC[C@]2(CCN(c3ccc([C@@H](O)C(F)(F)F)cc3)C2=O)CC1 [Example 9, (5α,8α)-8-(2,2-Dimethyl-5-oxo-pyrrolidin-1-ylmethyl)-8-hydroxy-2-[4-((R)-2,2,2-trifluoro-1-hydroxy-ethyl)-phenyl]-2-aza-spiro[4.5]decan-1-one] | 7.84 |
| CN1CCN(C[C@]2(O)CC[C@]3(CCN(c4ccc([C@@H](O)C(F)(F)F)cc4)C3=O)CC2)C1=O [Example 10, (5α,8α)-8-Hydroxy-8-(3-methyl-2-oxo-imidazolidin-1-ylmethyl)-2-[4-((R)-2,2,2-trifluoro-1-hydroxy-ethyl)-phenyl]-2-aza-spiro[4.5]decan-1-one] | 6.87 |
| O=C1OCC2(CC2)N1C[C@]1(O)CC[C@]2(CCN(c3ccc(OCC(F)(F)F)cc3)C2=O)CC1 [Example 15, (5α,8α)-8-Hydroxy-8-(5-oxo-6-oxa-4-aza-spiro[2.4]hept-4-ylmethyl)-2-[4-(2,2,2-trifluoro-ethoxy)-phenyl]-2-aza-spiro[4.5]decan-1-one] | 6.00 |
| O=C1OCCN1C[C@]1(O)CC[C@]2(CCN(c3ccc(OCC(F)(F)F)cc3)C2=O)CC1 [Example 16, (5α,8α)-8-Hydroxy-8-(2-oxo-oxazolidin-3-ylmethyl)-2-[4-(2,2,2-trifluoro-ethoxy)-phenyl]-2-aza-spiro[4.5]decan-1-one] | 6.82 |
| O=C1CCC2(CC2)N1C[C@]1(O)CC[C@]2(CCN(c3ccc([C@@H](O)C(F)(F)F)cc3)C2=O)CC1 [Example 17, (5α,8α)-8-Hydroxy-8-(5-oxo-4-aza-spiro[2.4]hept-4-ylmethyl)-2-[4-((R)-2,2,2-trifluoro-1-hydroxy-ethyl)-phenyl]-2-aza-spiro[4.5]decan-1-one] | 7.40 |

Compounds with a higher pIC50, results first:

| pIC50 | SMILES |
| --- | --- |
| 7.94 | CC(C)Oc1ccc(N2CC[C@]3(CC[C@@](O)(CN4C(=O)CCC45CC5)CC3)C2=O)cc1 [Example 4, (5α,8α)-8-Hydroxy-2-(4-isopropoxy-phenyl)-8-(5-oxo-4-aza-spiro[2.4]hept-4-ylmethyl)-2-aza-spiro[4.5]decan-1-one] |
| 8.01 | C[C@H](Oc1ccc(N2CC[C@]3(CC[C@@](O)(CN4C(=O)CCC45CC5)CC3)C2=O)cn1)C(F)(F)F [Example 12, (5α,8α)-8-hydroxy-8-((5-oxo-4-azaspiro[2.4]heptan-4-yl)methyl)-2-(6-((S)-1,1,1-trifluoropropan-2-yloxy)pyridin-3-yl)-2-azaspiro[4.5]decan-1-one] |
| 8.12 | O=C1CCC2(CC2)N1C[C@]1(O)CC[C@]2(CCN(c3ccc(OCC(F)(F)F)cc3)C2=O)CC1 [Example 13, (5α,8α)-8-Hydroxy-8-(5-oxo-4-aza-spiro[2.4]hept-4-ylmethyl)-2-[4-(2,2,2-trifluoro-ethoxy)-phenyl]-2-aza-spiro[4.5]decan-1-one] |
| 8.15 | C[C@@H](Oc1ccc(N2CC[C@]3(CC[C@@](O)(CN4C(=O)CCC45CC5)CC3)C2=O)cc1)C(F)(F)F [Example 11, (5α,8α)-8-hydroxy-8-((5-oxo-4-azaspiro[2.4]heptan-4-yl)methyl)-2-(4-((R)-1,1,1-trifluoropropan-2-yloxy)phenyl)-2-azaspiro[4.5]decan-1-one] |
| 8.23 | CC(C)Oc1ccc(N2CC[C@]3(CC[C@@](O)(CN4CCOC4=O)CC3)C2=O)cc1 [Example 5, 3-(((5α,8α)-8-Hydroxy-2-(4-isopropoxyphenyl)-1-oxo-2-azaspiro[4.5]decan-8-yl)methyl)oxazolidin-2-one] |
